Columns and labels:
[1] = system: normal NK cells expanded with K562-aAPC; experiment: percent inhibition of viability; higher = more inhibition; settings: 72 h, IL-2 2.5 ng/mL
Experimental: (§1)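 Drug sensitivity and resistance testing on K562-aAPC-expanded normal NK cells: 5 concentrations (10-fold steps over a 10,000-fold range), 72 h at 37 °C, viability by CellTiter-Glo normalised to DMSO and benzethonium chloride controls; DSS from the fitted curve.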

DERL-7 (IL-2 2.5 ng/mL) [2] = experiment: as above; settings: 72 h
IMC-1 (IL-2 20 ng/mL) [3] = experiment: as above; settings: 72 h
KAI3 (IL-2 2.5 ng/mL) [4] = experiment: as above; settings: 72 h
KHYG-1 (IL-2 2.5 ng/mL) [5] = experiment: as above; settings: 72 h
NK-92 (IL-2 2.5 ng/mL) [6] = experiment: as above; settings: 72 h
NK-YS (IL-2 2.5 ng/mL) [7] = experiment: as above; settings: 72 h
NKL (IL-2 2.5 ng/mL) [8] = experiment: as above; settings: 72 h
SNK-6 (IL-2 2.5 ng/mL) [9] = experiment: as above; settings: 72 h
YT (IL-2 2.5 ng/mL) [10] = experiment: as above; settings: 72 h
[11] = system: normal primary NK cells, pool 1 (3 donors) (IL-2 2.5 ng/mL); experiment: as above; settings: 72 h
[12] = system: normal primary NK cells, pool 1 (3 donors), resting (IL-2 0 ng/mL); experiment: as above; settings: 72 h
[13] = system: normal primary NK cells, pool 2 (3 donors) (IL-2 2.5 ng/mL); experiment: as above; settings: 72 h
[14] = system: normal primary NK cells, pool 3 (3 donors) (IL-2 2.5 ng/mL); experiment: as above; settings: 72 h
[15] = system: normal NK cells expanded with K562-aAPC; experiment: drug sensitivity score (DSS) (DSS units); higher = more sensitive; extreme values may be limits of the assay; settings: 72 h; IL-2 2.5 ng/mL
Experimental: as §1

DERL-7 (IL-2 2.5 ng/mL) [16] = experiment: as above; settings: 72 h
IMC-1 (IL-2 20 ng/mL) [17] = experiment: as above; settings: 72 h
KAI3 (IL-2 2.5 ng/mL) [18] = experiment: as above; settings: 72 h
KHYG-1 (IL-2 2.5 ng/mL) [19] = experiment: as above; settings: 72 h
NK-92 (IL-2 2.5 ng/mL) [20] = experiment: as above; settings: 72 h
NK-YS (IL-2 2.5 ng/mL) [21] = experiment: as above; settings: 72 h
NKL (IL-2 2.5 ng/mL) [22] = experiment: as above; settings: 72 h
SNK-6 (IL-2 2.5 ng/mL) [23] = experiment: as above; settings: 72 h
YT (IL-2 2.5 ng/mL) [24] = experiment: as above; settings: 72 h
[25] = system: normal primary NK cells, pool 1 (3 donors) (IL-2 2.5 ng/mL); experiment: as above; settings: 72 h
[26] = system: normal primary NK cells, pool 1 (3 donors), resting (IL-2 0 ng/mL); experiment: as above; settings: 72 h
[27] = system: normal primary NK cells, pool 2 (3 donors) (IL-2 2.5 ng/mL); experiment: as above; settings: 72 h
[28] = system: normal primary NK cells, pool 3 (3 donors) (IL-2 2.5 ng/mL); experiment: as above; settings: 72 h

Cc1cn(-c2cc(NC(=O)c3ccc(C)c(Nc4nccc(-c5cccnc5)n4)c3)cc(C(F)(F)F)c2)cn1 [Nilotinib] (max concentration tested 10000 nM)
percent inhibition of viability [%]
Settings	1 nM	10 nM	100 nM	1000 nM	10000 nM
DERL-7 (IL-2 2.5 ng/mL) [2]	-4.23	4.31	-3.59	-5.83	-5.46
IMC-1 (IL-2 20 ng/mL) [3]	-4.03	-1.9	2.58	0.7	-38.1
KAI3 (IL-2 2.5 ng/mL) [4]	-3.54	-7.12	4.99	7.48	20
KHYG-1 (IL-2 2.5 ng/mL) [5]	-0.89	0.67	11.9	5.38	17.9
NK-92 (IL-2 2.5 ng/mL) [6]	12.4	5.92	27.1	23.8	33.9
NK-YS (IL-2 2.5 ng/mL) [7]	-1.07	-0.64	9.04	11.3	15.7
NKL (IL-2 2.5 ng/mL) [8]	-17.5	-6.91	-4.77	29.9	50.9
SNK-6 (IL-2 2.5 ng/mL) [9]	11.9	22.4	9.61	18.6	37.7
YT (IL-2 2.5 ng/mL) [10]	1.35	1.76	8.97	16.1	18.2
[1]	-1.85	-4.37	-3.71	7.45	26.5
[11]	3.44	-14	-6.22	-13.6	-12.9
[12]	7.74	-12.7	-5.01	-11.6	-17.4
[13]	-15.7	-12.8	-10.3	-4.04	1.26
[14]	-13.2	-5.87	-1.78	-9.25	-1.3

Settings	drug sensitivity score
DERL-7 (IL-2 2.5 ng/mL) [16]	0
IMC-1 (IL-2 20 ng/mL) [17]	0
KAI3 (IL-2 2.5 ng/mL) [18]	0.95
KHYG-1 (IL-2 2.5 ng/mL) [19]	0.72
NK-92 (IL-2 2.5 ng/mL) [20]	7.73
NK-YS (IL-2 2.5 ng/mL) [21]	1.36
NKL (IL-2 2.5 ng/mL) [22]	6.35
SNK-6 (IL-2 2.5 ng/mL) [23]	6.76
YT (IL-2 2.5 ng/mL) [24]	2.28
[15]	2.11
[25]	0
[26]	0
[27]	0
[28]	0
